# Assay results reported in ChEMBL document CHEMBL6092126, “Inhibitors of Rickettsia prowazekii methionine aminopeptidase 1 identified from the Pandemic Response Box” (Bioorg Med Chem Lett, 2024).
# How the values were obtained:
# [1] = Inhibition of Rickettsia prowazekii methionine aminopeptidase 1 using methionine-aminomethylcoumarin as substrate preincubated for 1 hrs followed by substrate addition and measured after 30 mins by fluorescence based plate reader analysis
# [2] = Inhibition of Rickettsia prowazekii methionine aminopeptidase 1 using methionine-aminomethylcoumarin as substrate at 10 uM preincubated for 1 hrs followed by substrate addition and measured after 30 mins by fluorescence based plate reader analysis relative to control; settings: time 1.5 hrs
SMILES,IC50 [1],inhibition [2]
CN(C)CCCNC(=O)c1ccc(-c2cc(O)c3ncccc3c2)cc1,0.34 µM,> 60%
COc1cc(Cc2cnc(N)nc2N)cc(OC)c1OC [TRIMETHOPRIM],5.1 µM,> 60%
Cc1ccc(Oc2ccccc2-c2csc(N=C3NCCCN3)n2)c(C)c1 [ABAFUNGIN],5.4 µM,> 60%
O=C(O)c1ccc(-c2ccccc2Cl)o1,2.4 µM,–
CONC(=N)c1ccc(-c2ccc(-c3ccc(C(=N)NOC)cc3)o2)cc1 [PAFURAMIDINE],2.9 µM,> 60%
O=C(O)c1ccc(-n2nc(-c3ccccc3O)nc2-c2ccccc2O)cc1 [DEFERASIROX],2.1 µM,> 60%
O=C(NCc1ccc(F)cc1)c1c(O)c2ncccc2[nH]c1=O,1.9 µM,> 60%
O=c1cc(Nc2ccc3ccccc3c2)[nH]c(=O)[nH]1,1.8 µM,> 60%
Oc1cccc(C(Nc2nccs2)c2ccc3cccnc3c2O)c1 (centres undefined),1.4 µM,> 60%
Fc1ccc(-n2cc(Cn3c(-c4cccc(F)c4)nc4ccccc43)nn2)cc1,4.1 µM,> 60%
CCCCCCC1c2ccc(O)cc2Oc2cc(O)ccc21,10 µM,> 60%
O=C(CP(=O)(O)O)NCCc1cccc(Oc2ccccc2)c1,7 µM,> 60%
Cc1cc(-c2ccccc2)c(C(=O)C(=O)Nc2ccc(N3CCN(c4ncc(F)cn4)CC3)cc2)n1C [OLOROFIM],4.2 µM,> 60%
COc1ccc(C)cc1NC(=O)c1ccc(S(=O)(=O)N2CCCCC2)cc1,2.4 µM,> 60%
O=C1c2cccc3cccc(c23)C(=O)N1CC1CO1 (centres undefined),4.8 µM,> 60%
C[C@@H](c1nc(-c2ccc(C#N)cc2)cs1)[C@](O)(Cn1cncn1)c1ccc(F)cc1F [RAVUCONAZOLE],5.2 µM,> 60%
O=C(Nc1nnc(-c2ccc(Cl)cc2)o1)c1nc2ccccc2s1,5.5 µM,> 60%
O=[N+]([O-])/C(Br)=C/c1ccc(Br)o1,2.9 µM,> 60%
CN(O)C(=O)c1cc2c(CN3CCC[C@H]3C(N)=O)cn(Cc3ccc(F)cc3)c2cn1,4.2 µM,> 60%
Nc1nc(=O)[nH]cc1F [FLUCYTOSINE],6.9 µM,> 60%
